Test results from US20200131144A1, “AMINE OR (THIO)AMIDE CONTAINING LXR MODULATORS” (Phenex-FXR GmbH, priority 2017, published 2020).
Several values for one entry are separate records, joined by “and”; a condition that tells them apart may be missing. Equal values may be shown once.

Legend:
[1] = molecular target: T1, LXRα full length (FL) (Homo sapiens, UniProt Q13133); experiment: LXR Gal4 reporter transient transfection assay, mammalian two-hybrid, FL-M2H Gal4α; assay type: cell-based; conditions: HEK293 cells; inverse agonist unless *
T1 construct: the full length (FL) proteins of LXRα (amino acids 1-447); NP005684; expressed in transfected cells; host or cells: HEK293
T1 sequence (Q13133 1-447): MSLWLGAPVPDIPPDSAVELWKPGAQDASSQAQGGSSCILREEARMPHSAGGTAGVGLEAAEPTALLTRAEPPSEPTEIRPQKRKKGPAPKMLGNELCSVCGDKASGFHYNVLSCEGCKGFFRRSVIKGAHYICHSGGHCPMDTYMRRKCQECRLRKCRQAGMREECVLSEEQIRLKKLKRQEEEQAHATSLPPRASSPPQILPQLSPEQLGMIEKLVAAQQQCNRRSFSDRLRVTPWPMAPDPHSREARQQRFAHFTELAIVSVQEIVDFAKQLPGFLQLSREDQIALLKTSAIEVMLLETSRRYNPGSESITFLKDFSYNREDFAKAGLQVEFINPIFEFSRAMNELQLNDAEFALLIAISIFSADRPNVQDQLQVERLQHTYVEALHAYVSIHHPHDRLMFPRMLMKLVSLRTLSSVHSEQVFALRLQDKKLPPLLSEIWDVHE
In short: (§1)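 HEK293 cells transiently cotransfected with NFkB-AD fusions of full-length or LBD LXRα/β, GAL4-DBD fusions of SRC1 coactivator or NCoR corepressor domains, GAL4-driven firefly luciferase and Renilla control. Compound added 4 h post-transfection (≤0.2% DMSO), 16 h incubation; firefly and Renilla luminescence read sequentially.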

[2] = molecular target: T2, GST-LXRβ ligand-binding domain (Homo sapiens, UniProt P55055, INS174Q); experiment: TR-FRETβ activity assay (NCoA3 coactivator peptide recruitment); assay type: biochemical; conditions: 1 μM 24(S)-25-epoxycholesterol as prestimulating agonist; inverse agonist unless *
T2 construct: amino acids 156-461; NP009052; made in house; host or cells: E. coli
T2 sequence (P55055 with tags, fused parts or gaps INS174Q limits assumed): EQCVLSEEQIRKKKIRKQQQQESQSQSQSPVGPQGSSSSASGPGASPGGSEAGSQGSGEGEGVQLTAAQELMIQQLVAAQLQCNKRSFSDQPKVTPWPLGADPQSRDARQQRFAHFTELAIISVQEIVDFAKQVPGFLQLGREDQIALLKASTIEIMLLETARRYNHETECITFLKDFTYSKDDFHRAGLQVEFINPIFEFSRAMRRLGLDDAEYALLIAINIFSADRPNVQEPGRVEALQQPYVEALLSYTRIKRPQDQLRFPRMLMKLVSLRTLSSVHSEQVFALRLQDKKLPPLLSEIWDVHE
In short: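 E. coli-expressed GST-LXRβ LBD (aa 156-461, 76 nM) with biotinylated NCoA3 peptide (400 nM), anti-GST-Tb cryptate donor and streptavidin-XL665 acceptor in 240 mM KCl, BSA, 0.002% Triton X-100. Equilibrated 1 h at 4° C; TR-FRET read at 615/665 nm, triplicates.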

[3] = molecular target: T3, LXRβ full length (FL) (Homo sapiens, UniProt P55055, INS174Q); experiment: LXR Gal4 reporter transient transfection assay, mammalian two-hybrid, FL-M2H Gal4β; assay type: cell-based; conditions: HEK293 cells; inverse agonist unless *
T3 construct: the full length (FL) proteins of LXRα (amino acids 1-447); NP005684; NP009052; expressed in transfected cells; host or cells: HEK293
T3 sequence (P55055 with tags, fused parts or gaps INS174Q): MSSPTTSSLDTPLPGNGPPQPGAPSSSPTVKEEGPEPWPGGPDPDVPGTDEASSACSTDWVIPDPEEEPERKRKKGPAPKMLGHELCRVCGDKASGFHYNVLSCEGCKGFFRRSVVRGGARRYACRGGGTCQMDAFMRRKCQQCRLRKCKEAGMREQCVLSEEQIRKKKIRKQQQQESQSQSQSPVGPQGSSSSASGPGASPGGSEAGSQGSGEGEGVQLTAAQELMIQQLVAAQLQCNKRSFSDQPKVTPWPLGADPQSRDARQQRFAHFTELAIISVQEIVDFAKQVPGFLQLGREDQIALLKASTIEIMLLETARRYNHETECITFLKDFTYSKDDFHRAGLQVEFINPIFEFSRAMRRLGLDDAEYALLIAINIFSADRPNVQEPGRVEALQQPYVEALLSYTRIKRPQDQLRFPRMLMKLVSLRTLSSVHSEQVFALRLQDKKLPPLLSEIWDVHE
In short: as §1

| Compound | EC50 [1] [nM] | EC50 [2] [nM] | EC50 [3] | FRETβ [2] |
| --- | --- | --- | --- | --- |
| Cc1ccc2nc(C)c(C)c(C(=O)N(Cc3ccc(-c4cccc(C(C)(C)C(=O)O)c4)cc3)Cc3ccc(C(F)(F)F)o3)c2c1 [27/54] | < 100 | 100 to 1000 | < 100 nM | – |
| Cc1ccc2ccccc2c1C(=O)N(Cc1ccc(-c2cccc([C@H](C)C(=O)O)c2)cc1)Cc1ccc(C(F)(F)F)o1 [10/6] | < 100 | < 100 | < 100 nM | – |
| Cc1cnc2ccccc2c1C(=O)N(Cc1ccc(-c2cccc(C(C)(C)C(=O)O)c2)cc1)Cc1ccc(C(F)(F)F)o1 [27/103] | < 100 | < 100 | < 100 nM | – |
| CCOC(=O)c1ccc(CN(Cc2ncc(-c3cccc(C(C)C(=O)O)c3)cc2Cl)C(=O)c2c(C)c(C)nc3ccccc23)o1 (stereo not drawn) [27/98] | 100 to 1000 | 100 to 1000 | 100 to 1000 nM | – |
| COc1cc(-c2cc(F)c(CO)c(S(=O)(=O)CC(=O)O)c2)ccc1CN(Cc1ccc(C(F)(F)F)o1)Cc1c(C)cc(C)cc1C [22/10] | 1000 to 10000 | 1000 to 10000 | 100 to 1000 nM | – |
| O=C(O)CS(=O)(=O)c1cccc(-c2ccc(CN(Cc3ccc(C(F)(F)F)o3)Cc3ccc(F)c4cccnc34)cc2)c1 [7/3] | 1000 to 10000 | – | 1000 to 10000 nM and 100 to 1000 nM | B* |
| Cc1nc2cccnc2c(C(=O)N(Cc2ccc(-c3cccc(C(C)(C)C(=O)O)c3)cc2)Cc2ccc(C#N)o2)c1C [Example 33/1] | < 100 | 100 to 1000 | < 100 nM | – |
| COc1ncc(CN(Cc2ccc(-c3cccc(C(C)(C)C(=O)O)c3)cc2)Cc2ccc(C(F)(F)F)o2)c2ccccc12 [27/19] | < 100 | 100 to 1000 | < 100 nM | – |
| Cc1nc2cccnc2c(C(=O)N(Cc2ccc(-c3cccc(C4(C(=O)O)CC4)c3)cc2)Cc2ccc(C(F)(F)F)o2)c1C [27/112] | < 100 | 100 to 1000 | < 100 nM | – |
| Cc1ccc2c(CN(Cc3ccc(-c4cccc(C(C)(C)C(=O)O)c4)cc3)Cc3ccc(C(F)(F)F)o3)c(C)ccc2c1 [27/21] | < 100 | 100 to 1000 | < 100 nM | – |
| O=C(O)CS(=O)(=O)c1cccc(-c2ccc(CN(Cc3ccc(C(F)(F)F)o3)C(=O)c3cccc4ccccc34)cc2)c1 [27/41] | 1000 to 10000 | 1000 to 10000 | 1000 to 10000 nM | – |
| Cc1ccc2ncnn2c1C(=O)N(Cc1ccc(-c2cccc(C(C)(C)C(=O)O)c2)cc1)Cc1ccc(C(F)(F)F)o1 [27/121] | < 100 | < 100 | < 100 nM | – |
| Cc1cc(C)c(C(=O)N(Cc2ccc(-c3cc(F)c(CO)c(S(=O)(=O)CC(=O)O)c3)cc2)Cc2ccc(C(F)(F)F)o2)c(C)c1 [22/13] | 100 to 1000 | 1000 to 10000 | 100 to 1000 nM | – |
| Cc1nc2cccnc2c(C(=O)N(Cc2ccc(-c3cc(F)cc(C4(C(=O)O)CC4)c3)cc2)Cc2ccc(C(F)(F)F)o2)c1C [27/113] | < 100 | 100 to 1000 | < 100 nM | – |
| Cc1nc2ccccc2c(C(=O)N(Cc2ccc(C(=O)N(C)C)o2)Cc2ncc(-c3cccc(C(C)C(=O)O)c3)cc2Cl)c1C (stereo not drawn) [27/100] | 1000 to 10000 | > 10000 | 1000 to 10000 nM | – |
| Cc1nc2cccnc2c(C(=O)N(Cc2ccc(-c3cccc(C(C)(C)C(=O)O)c3)cc2)Cc2nc(C(F)(F)F)cs2)c1C [27/130] | < 100 | 100 to 1000 | < 100 nM | – |
